Experimental data reported in ChEMBL document CHEMBL3244163, “Antifungal agents. 5. Chemical modification of antibiotics from Polyangium cellulosum var. fulvum. Alcohol, ketone, aldehyde, and oxime analogues of ambruticin” (1979).
Values after ≈ are worked out from the molar mass of the structure shown. Active and inactive are the calls of the source. The calls are words filed in the database; no cut-off is given here.

Columns and labels:
Histoplasma capsulatum = experiment: Antifungal activity against Histoplasma capsulatum assessed as growth inhibition after 3 days by standard broth dilution technique; format: functional; conditions: 72 h
Candida albicans = experiment: Antifungal activity against Candida albicans by standard broth dilution technique; format: functional, organism-based
Streptococcus pyogenes = experiment: Antibacterial activity against Streptococcus pyogenes by standard broth dilution technique; format: functional, organism-based
[1] = Antifungal activity against Microsporum fulvum assessed as growth inhibition after 3 days by standard broth dilution technique; format: functional; conditions: Arthroderma fulvum

SMILES	MIC (Histoplasma capsulatum) [µg/mL]	Activity (Candida albicans)	Activity (Streptococcus pyogenes)	MIC [1] [µg/mL]
CC[C@H]1O[C@@H](/C(C)=C/[C@H](C)/C=C/[C@H]2[C@@H](C)[C@@H]2/C=C/[C@@H]2O[C@H](CCO)C[C@@](O)(CC)[C@H]2O)CC=C1C	1.56 (≈ 3.19 µM)	inactive	inactive	1.56 (≈ 3.19 µM)
CC[C@H]1O[C@@H](/C(C)=C/[C@H](C)/C=C/[C@H]2[C@@H](C)[C@@H]2/C=C/[C@@H]2O[C@H](CCO)C[C@H](O)[C@H]2O)CC=C1C	0.098 (≈ 0.213 µM)	inactive	inactive	0.098 (≈ 0.213 µM)
CC[C@H]1O[C@@H](/C(C)=C/[C@H](C)/C=C/[C@H]2[C@@H](C)[C@@H]2/C=C/[C@@H]2O[C@H](CC(=O)OC)C[C@H](O)[C@H]2O)CC=C1C	0.39 (≈ 0.798 µM)	inactive	inactive	0.39 (≈ 0.798 µM)
CC[C@H]1O[C@@H](/C(C)=C/[C@H](C)/C=C/[C@H]2[C@@H](C)[C@@H]2/C=C/[C@@H]2O[C@H](CC(=O)OC)CC(=O)[C@H]2O)CC=C1C	0.39 (≈ 0.801 µM)	inactive	inactive	0.195 (≈ 0.401 µM)
CC[C@H]1O[C@@H](/C(C)=C/[C@H](C)/C=C/[C@H]2[C@@H](C)[C@@H]2/C=C/[C@@H]2O[C@H](CCOC(=O)Nc3ccc(Cl)cc3)C[C@H](OC(=O)Nc3ccc(Cl)cc3)[C@H]2OC(=O)Nc2ccc(Cl)cc2)CC=C1C	–	inactive	inactive	> 50
CC[C@H]1O[C@@H](/C(C)=C/[C@H](C)/C=C/[C@H]2[C@@H](C)[C@@H]2/C=C/[C@@H]2O[C@H](CC(=O)O)C/C(=N/O)[C@H]2O)CC=C1C	3.12 (≈ 6.4 µM)	inactive	inactive	1.56 (≈ 3.2 µM)
CC[C@H]1O[C@@H](/C(C)=C/[C@H](C)/C=C/[C@H]2[C@@H](C)[C@@H]2/C=C/[C@@H]2O[C@H](CC(=O)O)C[C@@H](O)[C@H]2O)CC=C1C	0.78 (≈ 1.64 µM)	inactive	inactive	0.195 (≈ 0.411 µM)
CC[C@H]1O[C@@H](/C(C)=C/[C@H](C)/C=C/[C@H]2[C@@H](C)[C@@H]2/C=C/[C@@H]2O[C@H](CC(O)C(C)(C)C)C[C@H](O)[C@H]2O)CC=C1C (some centres undefined)	6.25 (≈ 12.1 µM)	inactive	inactive	> 50
CC[C@H]1O[C@@H](/C(C)=C/[C@H](C)/C=C/[C@H]2[C@@H](C)[C@@H]2/C=C/[C@@H]2O[C@H](CCO)C[C@@](O)(c3ccccc3)[C@H]2O)CC=C1C	3.12 (≈ 5.81 µM)	inactive	inactive	6.25 (≈ 11.6 µM)
CC[C@H]1O[C@@H](/C(C)=C/[C@H](C)/C=C/[C@H]2[C@@H](C)[C@@H]2/C=C/[C@@H]2O[C@H](CCOC(C)=O)C[C@H](OC(C)=O)[C@H]2OC(C)=O)CC=C1C	50 (≈ 85.2 µM)	inactive	inactive	> 50
CC[C@H]1O[C@@H](/C(C)=C/[C@H](C)/C=C/[C@H]2[C@@H](C)[C@@H]2/C=C/[C@@H]2O[C@H](CC(C)=O)C[C@H](O)[C@H]2O)CC=C1C	0.39 (≈ 0.825 µM)	inactive	inactive	0.195 (≈ 0.413 µM)
CC[C@H]1O[C@@H](/C(C)=C/[C@H](C)/C=C/[C@H]2[C@@H](C)[C@@H]2/C=C/[C@@H]2O[C@H](CC(O)c3ccccc3)C[C@H](O)[C@H]2O)CC=C1C (some centres undefined)	1.56 (≈ 2.91 µM)	inactive	inactive	1.56 (≈ 2.91 µM)
CC[C@H]1O[C@@H](/C(C)=C/[C@H](C)/C=C/[C@H]2[C@@H](C)[C@@H]2/C=C/[C@@H]2O[C@H](CCO)CC(=O)[C@H]2O)CC=C1C	6.25 (≈ 13.6 µM)	inactive	inactive	0.78 (≈ 1.7 µM)
CC[C@H]1O[C@@H](/C(C)=C/[C@H](C)/C=C/[C@H]2[C@@H](C)[C@@H]2/C=C/[C@@H]2O[C@H](CC(=O)OC)C/C(=N/O)[C@H]2O)CC=C1C	0.78 (≈ 1.55 µM)	inactive	inactive	–
CCC(=O)C[C@@H]1C[C@H](O)[C@@H](O)[C@H](/C=C/[C@H]2[C@H](C)[C@@H]2/C=C/[C@@H](C)/C=C(\C)[C@H]2CC=C(C)[C@@H](CC)O2)O1	0.78 (≈ 1.6 µM)	inactive	inactive	0.78 (≈ 1.6 µM)
CC[C@H]1O[C@@H](/C(C)=C/[C@H](C)/C=C/[C@H]2[C@@H](C)[C@@H]2/C=C/[C@@H]2O[C@H](CC=O)C[C@H](O)[C@H]2O)CC=C1C	0.78 (≈ 1.7 µM)	inactive	inactive	0.098 (≈ 0.214 µM)

SMILES	MIC (Histoplasma capsulatum) [µg/mL]	Activity (Candida albicans)	Activity (Streptococcus pyogenes)	MIC [1] [µg/mL]
CC[C@H]1O[C@@H](/C(C)=C/[C@H](C)/C=C/[C@H]2[C@@H](C)[C@@H]2/C=C/[C@@H]2O[C@H](CC(C)(C)O)C[C@H](O)[C@H]2O)CC=C1C	0.78 (≈ 1.6 µM)	inactive	inactive	0.195 (≈ 0.399 µM)
CC[C@H]1O[C@@H](/C(C)=C/[C@H](C)/C=C/[C@H]2[C@@H](C)[C@@H]2/C=C/[C@@H]2O[C@H](CC(=O)O)C[C@H](O)[C@H]2O)CC=C1C [AMBRUTICIN]	0.39 (≈ 0.822 µM)	inactive	inactive	0.098 (≈ 0.206 µM)
CC[C@H]1O[C@@H](/C(C)=C/[C@H](C)/C=C/[C@H]2[C@@H](C)[C@@H]2/C=C/[C@@H]2O[C@H](CC(O)(c3ccccc3)c3ccccc3)C[C@H](O)[C@H]2O)CC=C1C	50 (≈ 81.6 µM)	inactive	inactive	> 50
CC[C@H]1O[C@@H](/C(C)=C/[C@H](C)/C=C/[C@H]2[C@@H](C)[C@@H]2/C=C/[C@@H]2O[C@H](CC(=O)OC)C[C@@H](O)[C@H]2O)CC=C1C	0.39 (≈ 0.798 µM)	inactive	inactive	0.39 (≈ 0.798 µM)
CC[C@H]1O[C@@H](/C(C)=C/[C@H](C)/C=C/[C@H]2[C@@H](C)[C@@H]2/C=C/[C@@H]2O[C@H](CC(O)(C(C)C)C(C)C)C[C@H](O)[C@H]2O)CC=C1C	50 (≈ 91.8 µM)	inactive	inactive	> 50
CC[C@H]1O[C@@H](/C(C)=C/[C@H](C)/C=C/[C@H]2[C@@H](C)[C@@H]2/C=C/[C@@H]2O[C@H](CCOC(=O)Nc3ccc(Br)cc3)C[C@H](OC(=O)Nc3ccc(Br)cc3)[C@H]2OC(=O)Nc2ccc(Br)cc2)CC=C1C	–	inactive	inactive	> 50
CC[C@H]1O[C@@H](/C(C)=C/[C@H](C)/C=C/[C@H]2[C@@H](C)[C@@H]2/C=C/[C@@H]2O[C@H](CCO)C[C@](C)(O)[C@H]2O)CC=C1C	0.78 (≈ 1.64 µM)	inactive	inactive	0.78 (≈ 1.64 µM)
CC[C@H]1O[C@@H](/C(C)=C/[C@H](C)/C=C/[C@H]2[C@@H](C)[C@@H]2/C=C/[C@@H]2O[C@H](CC(C)O)C[C@H](O)[C@H]2O)CC=C1C (some centres undefined)	0.098 (≈ 0.206 µM)	inactive	inactive	0.195 (≈ 0.411 µM)
CCC(O)C[C@@H]1C[C@H](O)[C@@H](O)[C@H](/C=C/[C@H]2[C@H](C)[C@@H]2/C=C/[C@@H](C)/C=C(\C)[C@H]2CC=C(C)[C@@H](CC)O2)O1 (some centres undefined)	0.78 (≈ 1.6 µM)	inactive	inactive	–
CC[C@H]1O[C@@H](/C(C)=C/[C@H](C)/C=C/[C@H]2[C@@H](C)[C@@H]2/C=C/[C@@H]2O[C@H](CCO)C[C@@H](O)[C@H]2O)CC=C1C	0.39 (≈ 0.847 µM)	inactive	inactive	0.39 (≈ 0.847 µM)
CC[C@H]1O[C@@H](/C(C)=C/[C@H](C)/C=C/[C@H]2[C@@H](C)[C@@H]2/C=C/[C@@H]2O[C@H](CCOC(=O)Nc3ccccc3)C[C@H](OC(=O)Nc3ccccc3)[C@H]2OC(=O)Nc2ccccc2)CC=C1C	–	inactive	inactive	> 50
CC[C@H]1O[C@@H](/C(C)=C/[C@H](C)/C=C/[C@H]2[C@@H](C)[C@@H]2/C=C/[C@@H]2O[C@H](CC(O)(CC)CC)C[C@H](O)[C@H]2O)CC=C1C	1.56 (≈ 3.02 µM)	inactive	inactive	3.12 (≈ 6.04 µM)
CC[C@H]1O[C@@H](/C(C)=C/[C@H](C)/C=C/[C@H]2[C@@H](C)[C@@H]2/C=C/[C@@H]2O[C@H](CC(=O)c3ccccc3)C[C@H](O)[C@H]2O)CC=C1C	6.25 (≈ 11.7 µM)	inactive	inactive	25 (≈ 46.8 µM)
CC[C@H]1O[C@@H](/C(C)=C/[C@H](C)/C=C/[C@H]2[C@@H](C)[C@@H]2/C=C/[C@@H]2O[C@H](CC(=O)C(C)(C)C)C[C@H](O)[C@H]2O)CC=C1C	12.5 (≈ 24.3 µM)	inactive	inactive	> 50
CC[C@H]1O[C@@H](/C(C)=C/[C@H](C)/C=C/[C@H]2[C@@H](C)[C@@H]2/C=C/[C@@H]2O[C@H](CCO)C/C(=N\O)[C@H]2O)CC=C1C	0.098 (≈ 0.207 µM)	inactive	inactive	0.195 (≈ 0.412 µM)
